Data on 2 compounds can be found in patent US11207315B2, “Emetine compounds for treatment and prevention of flavivirus infection” (FLORIDA STATE UNIVERSITY RESEARCH FOUNDATION, INC., priority 2017, dated 2021).

Data set [1] relates to HEK293 cells. Briefly: Toxicity IC50 (cell-killing activity) in the compound screen. The data set is classed as cell-based, Human.
Data set [2] deals with ZIKV (three strains). Briefly: infectious ZIKV production from SNB-19 cells, focus-forming unit assay on Vero cells. The data set is classed as cell-based. Particulars: Zika virus, for each of three ZIKV strains. The procedure: FIGS. 1A-B. Antiviral activity of emetine against ZIKV infection. ZIKV production from human glioblastoma SNB-19 cells treated with increasing concentrations of emetine. 24 hours post-infection, supernatants from SNB-19 cells were titrated onto naïve Vero cells plated in a monolayer in 96-well plates for infectious focus-forming unit assay as previously described and focus forming units quantified.
(§1) IC50 for each strain is ≤˜10 nM.
Cell line cultures. The glioblastoma SNB-19 cell line (part of the National Cancer Institute 60 human tumor cell line) was a gift from Dr. David Meckes (Florida State University, Tallahassee, Fla.). SNB-19 cells were maintained at 37° C. in 5% CO2 in […], 1× penicillin/streptomycin, and 10% fetal bovine serum (Invitrogen). The Aedes albopictus C6/36 cell line (ATCC) was maintained at 28° C. in 5% CO2.
Preparation of ZIKV and cell infection. The MR766-ZIKV stock with the titer of 1×10^5 Tissue Culture Infective Dose (TCID)/ml in the form of culture fluid from an infected rhesus Macaca cell line LLC-MK2, was originally obtained from ZeptoMetrix (Buffalo, N.Y.). The FSS13025-ZIKV strain was obtained from Drs. Robert Tesh and Pei-Yong Shi (University of Texas Medical Branch, Galveston, Tex.). […] C6/36-amplified ZIKV titer was determined by infecting Vero cells for 48 hours with a methyl-cellulose overlay and analyzed for focus-forming units per mL (FFU/ml). […]

Data set [3] relates to ZIKV. Briefly: serum viral load (ZIKV NS1 ELISA) in ZIKV-challenged mice. Particulars: for decrease in serum viral load: serum at day 3; for reduction in serum viral load: until day 3. The data set is classed as in vivo, Ifnar1−/− mice. As for the experimental part: (§2) FIG. 8. Zika virus load estimation in mouse serum following emetine treatment. Serum was separated. NS1 protein was estimated using ZIKV-NS1 ELISA kit (Biofront, Tallahassee, Fla.) as per the manufacturer's protocol. Briefly, 5 μl of the serum was lysed with equal volume of lysis buffer for 30 min at 37° C. A 1:900 dilution of the serum was done using sample dilution buffer and added to ELISA plates. Reactions were quantified using HRP conjugated antibody and TMB. Absorbance was taken at 450 nm after adding the stop solution. Statistical analysis was done using the Mann-Whitney ANOVA. *p<0.05, **p<0.01, ***p<0.001.
as §2, with “9.” for “8.”, “treatment before and after Zika virus challenge.” for “treatment.”, “1:300” for “1:900”
NS1 ELISA. The anti-ZIKV NS1 ELISA (ZKV-NS1-EK) was obtained from BioFront Technologies (Tallahassee, Fla.) and used according to the manufacturer's protocol.
Ifnar1−/− mice (7-8 wk old, male and female, Jackson Lab) were dosed (i.p) with Emetine 1 mg/kg/day (n=6), 2 mg/kg/day (n=8) or saline (Vehicle control, n=8) starting at 24 hours prior to challenging with ZIKV (10^3, Focal forming unit (FFU)) on day 0. Drug was continued until day 6. At peak viremia (day 3), a blood sample was taken from the tail vein and serum was separated and stored at −70° C. till further analysis. The body weight were monitored twice daily until day 10. Mice reaching humane end points were euthanized. With emetine treatment, there was a 30% and 37% decrease in serum viral load with 1 mg/kg and 2 mg/kg treatment, respectively.
(§3) Ifnar1−/− mice (8 wk old, male and female) were dosed with Emetine 2 mg/kg/day i.p. starting at 24 hours prior (n=8) or 24 after (n=7) the challenging with ZIKV on day 0. Drug was continued till day 3. Mice were euthanized, and blood and liver tissue were collected.

Data set [4] has as its system PRVABC59-ZIKV. Briefly: time of addition: drug added 1 hour prior to or 4 hours post infection, NS1 Western blot and ZIKV-ENV IF staining. Particulars: added before or after infection; 1 μM. The data set is classed as cell-based, Zika virus. The procedure:
as §1
Drug (emetine) was added at 1 μM either 1-hour prior to infection with PRVABC59-ZIKV, or 4-hours post infection with PRVABC59-ZIKV.
FIGS. 6A-B show IF staining of ZIKV-ENV Vero cells after a 24-hour infection. Drug was added at 1 μM either 1-hour prior to infection with PRVABC59-ZIKV, or 4-hours post infection with PRVABC59-ZIKV.
Immunocytochemistry. Cells were fixed with 4% paraformaldehyde (Sigma) for 15 min at room temperature. Samples were permeabilized and blocked with 0.25% Triton X-100 (Sigma) and 10% donkey or goat serum in PBS for 20 min as previously described (Chiang et al., 2011; [41]; Yoon et al., 2014). Samples were then incubated with primary antibodies at 4° C. overnight, followed by multiple PBST washes and incubation with secondary antibodies for 1 h at room temperature. Slides were mounted using VECTASHIELD with DAPI (Vectorlabs, Burlingame, Calif.). The following primary antibodies were used: anti-flavivirus group antigen (clone D1-4G2-4-15; mouse; 1:500; Millipore), and anti-cleaved caspase-3 ([…]; Rabbit; 1:500; Cell Signaling Technology). Antibodies were prepared in PBS containing 0.25% Triton X-100 and 10% donkey serum. Images were taken by Zeiss LSM 700 and 880 confocal microscopes, Olympus BX61, or Zeiss Axiovert 200M microscope.
Western blot. […]
Background: In western blotting, separated proteins are transferred to a membrane and probed.

The test system of data set [5] is ZIKV (three strains). Briefly: immunofluorescence staining and quantification of ZIKV positive SNB-19 cells. Particulars: one of three ZIKV strains; emetine at 0.01, 0.1, or 1 μM. The data set is classed as cell-based, Zika virus. As for the experimental part:
Immunofluorescence (IF) staining (FIG. 2A) and quantification (FIG. 2B) of ZIKV positive SNB-19 cells following infection with one of three ZIKV strains and treatment with emetine at 0.01, 0.1, or 1 μM. Emetine is effective against all three ZIKV strains tested.
Preparation of ZIKV and cell infection. The MR766-ZIKV stock with the titer of 1×10^5 Tissue Culture Infective Dose (TCID)/ml in the form of culture fluid from an infected rhesus Macaca cell line LLC-MK2, was originally obtained from ZeptoMetrix (Buffalo, N.Y.). The FSS13025-ZIKV strain was obtained from Drs. Robert Tesh and Pei-Yong Shi (University of Texas Medical Branch, Galveston, Tex.). The PRVABC59 strain was obtained from ATCC (Manassas, Va.). Original viral stocks were then amplified in Aedes albopictus clone C6/36 cells. Briefly, C6/36 cells were inoculated with viral inoculum for one hour at 28° C. in low volume of media (3 ml per T-75 flask), with rocking every 15 minutes, before addition of 17 ml media. Viral inoculated cells were incubated at 28° C. for 6-7 days before harvesting of supernatant. C6/36-amplified ZIKV titer was determined by infecting Vero cells for 48 hours with a methyl-cellulose overlay and analyzed for focus-forming units per mL (FFU/ml). In mock infections, an equal volume of spent uninfected C6/36 culture medium was used. […]

Data set [6] deals with ZIKV. Put plainly: liver viral load (NS1 gene expression by real time PCR) in ZIKV-challenged mice. Particulars: until day 3. The data set is classed as in vivo, Ifnar1−/− mice. As for the experimental part:
FIG. 10. Zika virus load estimation in mouse liver following emetine treatment before and after Zika virus challenge. From 30 mg of liver tissue stored in RNAlater (Qiagen), total RNA was isolated using RNeasy mini kit (Qiagen) and converted to cDNA. Viral NS1 gene expression was estimated by real time PC Relative expression of the NS1 gene was calculated using ZIKV-NS1 specific primers and GAPDH primers. Statistical analysis was done using the Mann-Whitney ANOVA. *p<0.05, **p<0.01, ***p<0.001.
as §3
A general note: Quantitative PCR measures a nucleic acid by following its amplification.

The mark [7] stands for this setting: 2 mg/kg i.p. starting 24 hours after ZIKV challenge.
Setting [8] is: 2 mg/kg i.p. starting 24 hours prior to ZIKV challenge.

Where a name gives a salt, the structure may show the parent alone.

For `CC[C@H]1CN2CCc3cc(OC)c(OC)cc3[C@@H]2C[C@@H]1C[C@H]1NCCc2cc(OC)c(OC)cc21` [Emetine, emetine], in data set [1], the “Tox IC50” value is recorded as “No”. Further, the IC50 – broadly, the concentration that inhibits the measured activity by half – in data set [2] was at most 10 nM. Moreover, the “decrease in serum viral load” value in data set [3] (1 mg/kg/day i.p. from 24 hours prior to challenge) was 30%; in data set [3] (2 mg/kg/day i.p. from 24 hours prior to challenge), 37%. The “effect on ZIKV infection by time of addition” value in data set [4] was “effective against ZIKV infection when added before or after infection”. Also, the “ZIKV positive SNB-19 cells (IF)” value in data set [5] was “reduces ZIKV infection in a dosage dependent manner”.

Consider `CC[C@H]1CN2CCc3cc(OC)c(OC)cc3[C@@H]2C[C@@H]1C[C@H]1NCCc2cc(OC)c(OC)cc21` [emetine dihydrochloride], for which the “reduction in serum viral load” value in data set [3] (setting [7]) was found to be 32%; in data set [3] (setting [8]), 55%. Besides, the “reduction in liver viral load” value in data set [6] (setting [7]) was 35%; in data set [6] (setting [8]) it was 42%.
